Measured values: patent US20020086895A1, “Methods of treating fungal infections” (priority 1985, published 2002)

Tests used:
A. fumigatus = assay: Antifungal screen of matrix-synthesis aurones in 96-well plates, A. fumigatus; type: cell-based, Aspergillus fumigatus
Description: (§1) Thirty-eight 96-well plates were prepared with the above samples and tested against both C. albicans and A. fumigatus at either 8 μg/ml or 12.5 μg/ml. Plates with high activity were retested at the same concentration to confirm activity.
(§2) These compounds have formulae where W′ is OH, V is 3′,4′-(1,1-dimethylpropyloxy) to form a dihydropyran series, and X is selected from 3,4-dimethoxyphenyl, 4-t-butylphenyl, 2(prop-2-enyloxy)phenyl, 3-phenoxyphenyl, 3-ethoxy-4-hydroxyphenyl, 6-cyclohexenyl, and norborn-4-yl.

C. albicans = assay: Antifungal screen of matrix-synthesis aurones in 96-well plates, C. albicans; type: cell-based, Candida albicans
Description: as §1, §2

[1] = system: Staphylococcus aureus KLE820; assay: Activity of selected aurones against Staphylococcus aureus KLE820; type: cell-based; conditions: read-out: % Inhibition of growth at 10 ug/ml
Description: Compounds described herein also have activity against bacteria.

[2] = system: Candida albicans (strain ATCC #90028); assay: Inhibition of Candida spp. culture (XTT); type: cell-based; conditions: assay validation
Description: Candida albicans (strain ATCC #90028), Candida krusei (strain ATCC #90030), and Torulopsis (Candida) glabrata (strain ATCC #6258) were subcultured from cryopreserved stocks onto sabourand dextrose agar plates. Blastoconidia were suspended into RPMI-MOPS (media) and inoculated (500 cfu/well) into 96-well plates containing test compounds in a final volume of 100 μL/well. After 22 hours at 35° C., 25 μL of XTT (2,3-bis(2-methoxy-4-nitro-5-sulfophenyl)-5-[(phenylamino)carbonyl]-2H-tetrazolium hydroxide), (100 μg/mL) with PMS (phenazine methyl sulfate, 5 μM) were added to each well, followed by 2 hours of shaking. Growth was assessed spectrophotometrically by measuring the appearance of soluble formazan stain at 450 nm using an Emax microplate reader.

Row | SMILES | AF percent inhibition (A. fumigatus; @12.5 μg/ml) | CA percent inhibition (C. albicans; @12.5 μg/ml) | AF percent inhibition (A. fumigatus; @8 μg/ml) | CA percent inhibition (C. albicans; @8 μg/ml) | other results
1 | C=CCOc1ccccc1C=C1Oc2cc(O)c(CC=C(C)C)c(O)c2C1=O | 40% | 59% | – | – | –
2 | CC(C)=CCc1c(O)cc2c(c1O)C(=O)C(=Cc1ccc(Oc3ccccc3)cc1)O2 | CA 0% AF 0% @12.5 μg/ml | – | – | – | –
3 | CC(C)=CCc1c(O)cc2c(c1O)C(=O)C(=Cc1cccc(O)c1O)O2 | 31% | 94% | – | – | –
4 | CC(C)=CCc1c(O)cc2c(c1O)C(=O)C(=Cc1ccc(O)c(O)c1O)O2 | 0% | 89% | – | – | –
5 | C=CCOc1ccccc1C=C1Oc2cc(O)cc(O)c2C1=O | 43% | 0% | – | – | –
6 | O=C1C(=Cc2ccc(O)c(O)c2)Oc2cc(O)cc(O)c21 | 36% | 95% | – | – | –
7 | O=C1C(=Cc2ccc(Oc3ccccc3)cc2)Oc2cc(O)cc(O)c21 | 48% | 57% | – | – | –
8 | O=C1C(=Cc2cccc(O)c2O)Oc2cc(O)cc(O)c21 | 27% | 79% | – | – | –
9 | O=C1C(=Cc2ccc(O)c(O)c2O)Oc2cc(O)cc(O)c21 | 44% | 94% | – | – | –
10 | C=CCOc1ccccc1C=C1Oc2cc3c(c(O)c2C1=O)CCC(C)(C)O3 | – | – | 94% | 67% | –
11 | CC1(C)CCc2c(cc3c(c2O)C(=O)C(=Cc2ccc(O)c(O)c2)O3)O1 | – | – | 0% | 87% | –
12 | CC1(C)CCc2c(cc3c(c2O)C(=O)C(=Cc2ccc(Oc4ccccc4)cc2)O3)O1 | – | – | 76% | 80% | –
13 | CC1(C)CCc2c(cc3c(c2O)C(=O)C(=Cc2cccc(O)c2O)O3)O1 | – | – | 52% | 96% | –
14 | CC1(C)CCc2c(cc3c(c2O)C(=O)C(=Cc2ccc(O)c(O)c2O)O3)O1 | – | – | 69% | 0% | –
15 | C=CCOc1ccccc1C=C1Oc2cc(O)c(CC=C)c(O)c2C1=O | – | – | 96% | 53% | –
16 | C=CCc1c(O)cc2c(c1O)C(=O)C(=Cc1ccc(O)c(O)c1)O2 | – | – | CA 0% AF 0% @8 μg/ml | CA 0% AF 0% @8 μg/ml | –
17 | C=CCc1c(O)cc2c(c1O)C(=O)C(=Cc1ccc(Oc3ccccc3)cc1)O2 | – | – | 68% | 52% | –
18 | C=CCc1c(O)cc2c(c1O)C(=O)C(=Cc1cccc(O)c1O)O2 | – | – | 0% | 45% | –
19 | C=CCc1c(O)cc2c(c1O)C(=O)C(=Cc1ccc(O)c(O)c1O)O2 | – | – | 35% | 69% | –
20 | CC(C)=CCc1c(O)cc2c(c1O)C(=O)C(=Cc1cc(C(C)(C)C)c(O)c(C(C)(C)C)c1)O2 | 48% | 47% | – | – | –
21 | CC(C)=CCc1c(O)cc2c(c1O)C(=O)C(=Cc1ccc(F)cc1F)O2 | 40% | 0% | – | – | –
22 | CCOc1ccc(C=C2Oc3cc(O)c(CC=C(C)C)c(O)c3C2=O)cc1OC | 49% | 25% | – | – | –

Row | SMILES | AF percent inhibition (A. fumigatus; @12.5 μg/ml) | CA percent inhibition (C. albicans; @12.5 μg/ml) | AF percent inhibition (A. fumigatus; @8 μg/ml) | CA percent inhibition (C. albicans; @8 μg/ml) | other results
23 | CCOc1ccccc1C=C1Oc2cc(O)c(CC=C(C)C)c(O)c2C1=O | 51% | 25% | – | – | –
24 | COc1ccccc1C=C1Oc2cc(O)c(CC=C(C)C)c(O)c2C1=O | 39% | 15% | – | – | –
25 | CC(C)(C)c1cc(C=C2Oc3cc(O)cc(O)c3C2=O)cc(C(C)(C)C)c1O | 35% | 17% | – | – | –
26 | O=C1C(=Cc2ccc(F)cc2F)Oc2cc(O)cc(O)c21 | 43% | 0% | – | – | –
27 | CCOc1ccc(C=C2Oc3cc(O)cc(O)c3C2=O)cc1OC | CA 0% AF 0% @12.5 μg/ml | – | – | – | –
28 | CCOc1ccccc1C=C1Oc2cc(O)cc(O)c2C1=O | CA 0% AF 0% @12.5 μg/ml | – | – | – | –
29 | COc1ccccc1C=C1Oc2cc(O)cc(O)c2C1=O | CA 0% AF 0% @12.5 μg/ml | – | – | – | –
30 | CC1(C)CCc2c(cc3c(c2O)C(=O)C(=Cc2cc(C(C)(C)C)c(O)c(C(C)(C)C)c2)O3)O1 | – | – | 68% | 69% | –
31 | CC1(C)CCc2c(cc3c(c2O)C(=O)C(=Cc2ccc(F)cc2F)O3)O1 | – | – | 94% | 0% | –
32 | CCOc1ccc(C=C2Oc3cc4c(c(O)c3C2=O)CCC(C)(C)O4)cc1OC | – | – | 67% | 58% | –
33 | CCOc1ccccc1C=C1Oc2cc3c(c(O)c2C1=O)CCC(C)(C)O3 | – | – | 71% | 80% | –
34 | COc1ccccc1C=C1Oc2cc3c(c(O)c2C1=O)CCC(C)(C)O3 | – | – | 70% | 76% | –
35 | C=CCc1c(O)cc2c(c1O)C(=O)C(=Cc1cc(C(C)(C)C)c(O)c(C(C)(C)C)c1)O2 | – | – | 60% | 49% | –
36 | C=CCc1c(O)cc2c(c1O)C(=O)C(=Cc1ccc(F)cc1F)O2 | – | – | 96% | 53% | –
37 | C=CCc1c(O)cc2c(c1O)C(=O)C(=Cc1ccc(OCC)c(OC)c1)O2 | – | – | 69% | 65% | –
38 | C=CCc1c(O)cc2c(c1O)C(=O)C(=Cc1ccccc1OCC)O2 | – | – | 52% | 22% | –
39 | C=CCc1c(O)cc2c(c1O)C(=O)C(=Cc1ccccc1OC)O2 | – | – | 62% | 20% | –
40 | CC(C)=CCc1c(O)cc2c(c1O)C(=O)C(=Cc1c(C)cccc1C)O2 | 0% | 7% | – | – | –
41 | CC(C)=CCc1c(O)cc2c(c1O)C(=O)C(=Cc1ccccc1C)O2 | 0% | 11% | – | – | –
42 | CC(C)=CCc1c(O)cc2c(c1O)C(=O)C(=Cc1ccc(C)cc1)O2 | CA 18% AF 18% @12.5 μg/ml | CA 18% AF 18% @12.5 μg/ml | – | – | –
43 | CCc1ccc(C=C2Oc3cc(O)c(CC=C(C)C)c(O)c3C2=O)cc1 | 41% | 31% | – | – | –
44 | CC(C)=CCc1c(O)cc2c(c1O)C(=O)C(=Cc1c(C)cc(C)cc1C)O2 | 53% | 51% | – | – | –

Row | SMILES | AF percent inhibition (A. fumigatus; @12.5 μg/ml) | CA percent inhibition (C. albicans; @12.5 μg/ml) | AF percent inhibition (A. fumigatus; @8 μg/ml) | CA percent inhibition (C. albicans; @8 μg/ml) | other results
45 | CC(C)=CCc1c(O)cc2c(c1O)C(=O)C(=Cc1cc(C)cc(C)c1)O2 | #13% @12.5 μg/ml | CA 26% AF | – | – | –
46 | Cc1cccc(C)c1C=C1Oc2cc(O)cc(O)c2C1=O | CA 0% AF 0% @12.5 μg/ml | – | – | – | –
47 | Cc1ccccc1C=C1Oc2cc(O)cc(O)c2C1=O | CA 0% AF 0% @12.5 μg/ml | – | – | – | –
48 | Cc1ccc(C=C2Oc3cc(O)cc(O)c3C2=O)cc1 | CA 0% AF 0% @12.5 μg/ml | – | – | – | –
49 | CCc1ccc(C=C2Oc3cc(O)cc(O)c3C2=O)cc1 | CA 0% AF 0% @12.5 μg/ml | – | – | – | –
50 | Cc1cc(C)c(C=C2Oc3cc(O)cc(O)c3C2=O)c(C)c1 | 48% | 6% | – | – | –
51 | Cc1cc(C)cc(C=C2Oc3cc(O)cc(O)c3C2=O)c1 | #17% @12.5 μg/ml | CA 4% AF | – | – | –
52 | Cc1cccc(C)c1C=C1Oc2cc3c(c(O)c2C1=O)CCC(C)(C)O3 | – | – | 97% | 82% | –
53 | Cc1ccccc1C=C1Oc2cc3c(c(O)c2C1=O)CCC(C)(C)O3 | – | – | 34% | 13% | –
54 | Cc1ccc(C=C2Oc3cc4c(c(O)c3C2=O)CCC(C)(C)O4)cc1 | – | – | 93% | 58% | –
55 | CCc1ccc(C=C2Oc3cc4c(c(O)c3C2=O)CCC(C)(C)O4)cc1 | – | – | 68% | 73% | –
56 | Cc1cc(C)c(C=C2Oc3cc4c(c(O)c3C2=O)CCC(C)(C)O4)c(C)c1 | – | – | 28% | 0% | –
57 | Cc1cc(C)cc(C=C2Oc3cc4c(c(O)c3C2=O)CCC(C)(C)O4)c1 | – | – | #11% @8 μg/ml | CA 0% AF | –
58 | C=CCc1c(O)cc2c(c1O)C(=O)C(=Cc1c(C)cccc1C)O2 | – | – | 49% | 7% | –
59 | C=CCc1c(O)cc2c(c1O)C(=O)C(=Cc1ccccc1C)O2 | – | – | 11% | 4% | –
60 | C=CCc1c(O)cc2c(c1O)C(=O)C(=Cc1ccc(C)cc1)O2 | – | – | 47% | 10% | –
61 | C=CCc1c(O)cc2c(c1O)C(=O)C(=Cc1ccc(CC)cc1)O2 | – | – | 47% | 16% | –
62 | C=CCc1c(O)cc2c(c1O)C(=O)C(=Cc1c(C)cc(C)cc1C)O2 | – | – | 7% | 16% | –
63 | C=CCc1c(O)cc2c(c1O)C(=O)C(=Cc1cc(C)cc(C)c1)O2 | – | – | #81% @8 μg/ml | CA 42% AF | –
64 | O=C1/C(=C/c2cc(Cl)cc(Cl)c2O)Oc2cc(O)c(Cc3ccccc3)c(O)c21 | – | – | – | – | inhibition at 10 µg/mL [1]: 100%
65 | CC(C)=CCc1c(O)cc2c(c1O)C(=O)C(=Cc1ccc(O)c(O)c1)O2 [drawing 36+drawing 32] | 0% | 92% | – | – | –
66 | NC(=O)OC[C@H](O)[C@@H](O)[C@H](N)C(=O)N[C@H](C(=O)O)[C@H]1O[C@@H](n2cc(C(=O)O)c(=O)[nH]c2=O)[C@H](O)[C@@H]1O [polyoxin D] | – | – | – | – | C. albicans minimum inhibitory concentration (MIC) compared with reported ranges [2]: within reported ranges
